Assays:
Assay type in all cases: biochemical
human G34 protein [1] = biological target: T1, human G34 protein (Homo sapiens, UniProt Q8NCR0); test: Acceptor substrate specificity to oligosaccharides; settings: for % (radioactivity relative to Bz-β-GlcNAc set to 100%): 50 nmol substrate, HEPES pH 7.4, MnCl2 10 mM, 37° C. 2 hours
T1 construct: made in house; host or cells: Sf21 insect cells (baculovirus, pFBIF-G34A)
T1 sequence (Q8NCR0 36-500): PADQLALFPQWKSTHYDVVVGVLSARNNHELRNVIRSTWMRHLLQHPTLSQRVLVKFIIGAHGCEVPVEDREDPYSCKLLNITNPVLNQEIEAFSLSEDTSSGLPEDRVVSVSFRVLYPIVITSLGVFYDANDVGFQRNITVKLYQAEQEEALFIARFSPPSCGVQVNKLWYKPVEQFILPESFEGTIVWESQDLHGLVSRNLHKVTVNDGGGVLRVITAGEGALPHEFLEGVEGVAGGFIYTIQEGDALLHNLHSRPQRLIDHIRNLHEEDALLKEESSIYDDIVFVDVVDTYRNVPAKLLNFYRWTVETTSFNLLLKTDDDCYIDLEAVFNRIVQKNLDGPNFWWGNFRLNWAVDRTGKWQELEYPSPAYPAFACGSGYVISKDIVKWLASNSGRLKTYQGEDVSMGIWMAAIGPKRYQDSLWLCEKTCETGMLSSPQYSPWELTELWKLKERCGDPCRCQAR
Source text: The following reaction system was used for examining the acceptor substrate specificity to oligosaccharides. The acceptor substrates used were pNp-α-Gal, oNp-β-Gal, Bz-α-GlcNAc, Bz-β-GlcNAc, Bz-α-GalNAc, pNp-β-GalNAc, pNp-α-Glc, pNp-β-Glc, pNp-β-GlcA, pNp-α-Fuc, pNp-α-Xyl, pNp-β-Xyl, pNp-α-Man, lactoside-Bz, Lac-ceramide, Gal-ceramide, paragloboside, globoside, Gal-β1-4 GalNAc-α-pNp, Gal-β1-3 GlcNAc-β-pNp, GlcNAc-[…] GlcNAc β-Bz, pNp-core1 (Gal-β1-3 GalNAc-α-pNp), pNp-core2 (Gal-β1-3 (GlcNAc-β1-6) GalNAc-α-pNp), pNp-core3 (GlcNAc-β1-3 GalNAc-α-pNp) and pNp-core6 (GlcNAc-β1-6 GalNAc-α-pNp). “Lac” represents a D-lactose residue.
Each reaction solution (final concentrations in parentheses) was prepared by adding each substrate (50 nmol), HEPES buffer (pH 7.4, 14 mM), Triton CF-54 (trade name) (0.3%), UDP-GalNAc (2 mM), MnCl2 (10 mM), UDP-[^3H]GlcNAc and 5 μl G34 enzyme solution, followed by dilution with H2O to a total volume of […].
(§1) The above reaction mixtures were each reacted at 37° C. for 2 hours. After completion of the reaction, 200 μl H2O was added and each mixture was lightly centrifuged to obtain the supernatant. The supernatant was passed through a Sep-Pak plus C18 Cartridge (Waters), which had been washed once with 1 ml methanol and twice with 1 ml H2O and then equilibrated, to allow the substrate and product in the supernatant to adsorb to the cartridge. After washing the cartridge twice with 1 ml H2O, the adsorbed substrate and product were eluted with 1 ml methanol. The eluate was mixed with 5 ml liquid scintillator ACSII (Amersham Biosciences) and measured for the amount of radiation with a scintillation counter (Beckman Coulter).
The results thus measured were compared assuming that the radioactivity obtained using Bz-β-GlcNAc as a substrate was set to 100% (see Table 5).

mouse G34 = biological target: T2, mouse G34 (Mus musculus, UniProt Q8BG28); test: Substrate specificity of β1,3-N-acetylgalactosamine transferase activity of mouse G34; settings: for % (radioactivity relative to Bz-β-GlcNAc set to 100%): 10 nmol substrate, HEPES pH 7.4, MnCl2 10 mM, 37° C. 16 hours
T2 construct: made in house; host or cells: 293T cells transfected with pFLAG-CMV3-mG34A; purified from the supernatant
T2 sequence (Q8BG28 35-504): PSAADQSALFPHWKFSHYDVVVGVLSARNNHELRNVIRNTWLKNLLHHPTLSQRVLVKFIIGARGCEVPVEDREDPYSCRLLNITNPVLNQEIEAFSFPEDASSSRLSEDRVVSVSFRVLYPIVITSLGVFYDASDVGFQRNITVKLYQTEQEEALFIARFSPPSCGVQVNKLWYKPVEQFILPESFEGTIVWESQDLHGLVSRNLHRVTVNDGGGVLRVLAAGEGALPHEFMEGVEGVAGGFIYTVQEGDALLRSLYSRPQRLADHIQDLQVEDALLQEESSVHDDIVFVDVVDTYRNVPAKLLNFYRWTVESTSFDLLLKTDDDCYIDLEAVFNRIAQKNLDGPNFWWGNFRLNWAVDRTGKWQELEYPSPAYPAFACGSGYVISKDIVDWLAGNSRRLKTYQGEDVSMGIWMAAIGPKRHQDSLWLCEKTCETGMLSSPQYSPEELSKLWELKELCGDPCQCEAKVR
Source text: The following reaction system was used for examining mouse G34 for its substrate specificity in its β1,3-N-acetylgalactosamine transferase activity. In the reaction solutions shown below, each of the following was used at […] as an “acceptor substrate”: pNp-α-Gal, oNp-β-Gal, Bz-α-GlcNAc, Bz-β-GlcNAc, Bz-α-GalNAc, pNp-β-GalNAc, pNp-α-Glc, pNp-β-Glc, pNp-β-GlcA, pNp-α-Fuc, pNp-α-Xyl, pNp-β-Xyl, pNp-α-Man, lactoside-Bz, Lac-ceramide, Gal-ceramide, Gb3, globoside, Gal-β1-4GalNAc-α-pNp, Galβ1-3GlcNAc-β-Bz, GlcNAc-β1-4-GlcNAc-β-Bz, core1-pNp, core2-pNp, core3-pNp and core6-pNp (all purchased from SIGMA).
Each reaction solution was prepared as follows (final concentrations in parentheses): each substrate (10 nmol), HEPES (N-[2-hydroxyethyl]piperazine-N′-[2-ethanesulfonic acid]) (pH 7.4, 14 mM), MnCl2 (10 mM), Triton CF-54 (trade name) (0.3%), UDP-GalNAc (2 mM) and […] (40 nCi) were mixed and supplemented with 5 μl mouse G34 enzyme solution, followed by dilution with H2O to a total volume of 20 μl.
as §1, with “for 16” for “for 2”
The results thus measured were compared assuming that the radioactivity obtained using Bz-β-GlcNAc as a substrate was set to 100% (Table 11).

human G34 protein [2] = biological target: T1, human G34 protein; test: RI assay (divalent ion requirement)
[3] = concentration 2.5 mM, acceptor Bz-β-GlcNAc, HEPES pH 7.4
[4] = concentration 5 mM, acceptor Bz-β-GlcNAc, HEPES pH 7.4
[5] = concentration 10 mM, acceptor Bz-β-GlcNAc, HEPES pH 7.4
[6] = concentration 20 mM, acceptor Bz-β-GlcNAc, HEPES pH 7.4

`CC(=O)N[C@H]1[C@H](OCc2ccccc2)O[C@H](CO)[C@@H](O)[C@@H]1O` [Bz-β-GlcNAc] was tested, and the “% (radioactivity relative to Bz-β-GlcNAc set to 100%)” value (human G34 protein [1]) was 100%, the “increase in radioactivity” value (mouse G34) was “largest increase in radioactivity” and the “% (radioactivity relative to Bz-β-GlcNAc set to 100%)” value (mouse G34) was 100%.
`[Cl-].[Cl-].[Co+2]` [Co, CoCl2] showed a DPM (human G34 protein [2]; concentration 2.5 mM) of 10979.99 DPM, a DPM (human G34 protein [2]; concentration 5 mM) of 9503.91 DPM and a DPM (human G34 protein [2]; concentration 10 mM) of 10979.99 DPM. For the same compound, the DPM (human G34 protein [2]; concentration 20 mM) was 8070.47 DPM and the DPM (human G34 protein [2]; concentration 40 mM) was 7854.92 DPM.
With `[Cu+2]` [Cu] the “Mn-induced enhancement of the activity on addition of Cu” value (human G34 protein [2]) was “completely eliminated”.
Work on `O=C(O)CN(CCN(CC(=O)O)CC(=O)O)CC(=O)O` [EDTA] yielded a DPM (human G34 protein [2]; pH 7.4) of 149.32 DPM.
For `CC(=O)N[C@H]1[C@H](OCc2ccccc2)O[C@H](CO)[C@@H](O[C@@H]2O[C@H](CO)[C@@H](O)[C@H](O)[C@H]2NC(C)=O)[C@@H]1O` [GlcNAcβ1-4GlcNAc-β-Bz], the “% (radioactivity relative to Bz-β-GlcNAc set to 100%)” value (human G34 protein [1]) was 29% and the “% (radioactivity relative to Bz-β-GlcNAc set to 100%)” value (mouse G34) was 10%.
`[Cl-].[Cl-].[Mg+2]` [Mg, MgCl2] was tested, and the DPM (human G34 protein [2]; [3]) was 4800.03 DPM, the DPM (human G34 protein [2]; [4]) was 8692.15 DPM and the DPM (human G34 protein [2]; [5]) was 8980.56 DPM. For the same compound, the DPM (human G34 protein [2]; [6]) was 6726.32 DPM and the DPM (human G34 protein [2]; concentration 40 mM, acceptor Bz-β-GlcNAc, HEPES pH 7.4) was 5592.88 DPM.
Compound `[Cl][Mn][Cl]` [Mn, MnCl2] has a DPM (human G34 protein [2]; [3]) of 7260.09 DPM, a DPM (human G34 protein [2]; [4]) of 8270.23 DPM and a DPM (human G34 protein [2]; [5]) of 7748.77 DPM. It also gave a DPM (human G34 protein [2]; [6]) of 7515.86 DPM.
In the case of `CC(=O)N[C@H]1[C@H](OC[C@H]2O[C@H](Oc3ccc([N+](=O)[O-])cc3)[C@H](NC(C)=O)[C@@H](O[C@@H]3O[C@H](CO)[C@H](O)[C@H](O)[C@H]3O)[C@H]2O)O[C@H](CO)[C@@H](O)[C@@H]1O` [core2-pNp, Gal-β1-3-(GlcNAc-β1-6)GalNAc-α-pNp], the “increase in radioactivity” value (human G34 protein [1]) is reported as “largest increase in radioactivity”, the “% (radioactivity relative to Bz-β-GlcNAc set to 100%)” value (human G34 protein [1]) is reported as 185% and the “% (radioactivity relative to Bz-β-GlcNAc set to 100%)” value (mouse G34) is reported as 25%.
For `CC(=O)NC1C(OC2C(O)C(CO)OC(Oc3ccc([N+](=O)[O-])cc3)C2NC(C)=O)OC(CO)C(O)C1O` (stereo not drawn) [core3-pNp, GlcNAc-β1-3-GalNAc-α-pNp], the “% (radioactivity relative to Bz-β-GlcNAc set to 100%)” value (human G34 protein [1]) was 8% and the “% (radioactivity relative to Bz-β-GlcNAc set to 100%)” value (mouse G34) was 14%.
With `CC(=O)N[C@H]1[C@@H](Oc2ccc([N+](=O)[O-])cc2)O[C@H](CO[C@@H]2O[C@H](CO)[C@@H](O)[C@H](O)[C@H]2NC(C)=O)[C@H](O)[C@@H]1O` [core6-pNp, GlcNAc-β1-6-GalNAc-α-pNp] the “% (radioactivity relative to Bz-β-GlcNAc set to 100%)” value (human G34 protein [1]) was 19% and the “% (radioactivity relative to Bz-β-GlcNAc set to 100%)” value (mouse G34) was 18%.
`O=[N+]([O-])c1ccc(O[C@@H]2O[C@H](CO)[C@@H](O)[C@H](O)[C@H]2O)cc1` [pNp-β-Glc] was tested, and the “% (radioactivity relative to Bz-β-GlcNAc set to 100%)” value (mouse G34) was 12%.
